This is an account of results in patent US8431567B2 (Abbott GmbH & Co. KG, priority 2006, dated 2013).

Usually pKi stands for the negative decadic logarithm of the Ki, by convention in mol/L.

pKi: −log10 of the molar value. Where a name gives a salt, the structure may show the parent alone.

The assay addresses T1, human vasopressin V1b receptor (Homo sapiens, UniProt P47901).
T1 construct: expressed in transfected cells; host or cells: CHO-K1 (cell line hV1b_3H2_CHO), membrane preparation
T1 sequence (P47901 1-424): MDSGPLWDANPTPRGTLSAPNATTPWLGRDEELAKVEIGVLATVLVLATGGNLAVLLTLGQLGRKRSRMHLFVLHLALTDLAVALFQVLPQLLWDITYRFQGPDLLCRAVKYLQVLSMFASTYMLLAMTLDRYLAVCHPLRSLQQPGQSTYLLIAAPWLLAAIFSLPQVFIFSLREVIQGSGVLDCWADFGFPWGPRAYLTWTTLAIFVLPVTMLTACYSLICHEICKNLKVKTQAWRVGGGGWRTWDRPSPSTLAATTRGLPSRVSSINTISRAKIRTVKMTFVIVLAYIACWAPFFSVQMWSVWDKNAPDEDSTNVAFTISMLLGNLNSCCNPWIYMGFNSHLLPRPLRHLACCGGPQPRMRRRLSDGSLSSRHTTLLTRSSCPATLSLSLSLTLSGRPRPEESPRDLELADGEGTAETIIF
Briefly: Vasopressin V1b receptor binding test. The settings on record: membranes of CHO-K1 cells, displacement of 1.5 nM 3H-AVP. On the procedure:
• Vasopressin V1b Receptor Binding Test: • Substances:
The test substances were dissolved at a concentration of 10^−2 M in DMSO and diluted further in DMSO to 5×10^−4 M to 5×10^−9 M. These DMSO solutions were diluted 1:10 with test buffer. The concentration of substance was again diluted 1:5 in the test preparation.
The membrane pellet was homogenized and centrifuged again as described, and then taken up in 50 mM Tris-HCl, pH 7.4, homogenized and, frozen in aliquots, stored at −190° C. in liquid nitrogen.
The incubation buffer was: 50 mM Tris, 10 mM MgCl2, 0.1% BSA, pH 7.4. […] The nonspecific binding was determined with 1 μM AVP (Bachem #H1780). All determinations were performed in triplicate. After incubation (60 minutes at room temperature), the free radioligand was filtered off by vacuum filtration (Skatron cell harvester 7000) on Whatman GF/B glass-fibre filter mats and the filters were transferred to scintillation vessels. Liquid scintillation measurement was performed in a Tricarb instrument, Model 2000 or 2200CA (Packard). Conversion of the measured cpm to dpm was performed with the aid of a standard quench series.
The binding parameters were calculated by nonlinear regression in SAS.
For the compounds according to the invention, the affinities for the human vasopressin receptor V1b were measured according to the above test and the affinity constant (Ki) was determined.
Compound `CCOc1c(OC)cccc1C1(N2CCN(c3ccnc(C(C)C)c3)CC2)C(=O)N(S(=O)(=O)c2ccc(OC)cc2OC)c2ccc(C#N)cc21` (centres unmarked) [Example 110, 5-Cyano-1-(2,4-dimethoxybenzenesulphonyl)-3-(2-ethoxy-3-methoxyphenyl)-3-[4-(2-isopropylpyridin-4-yl)-piperazin-1-yl]-2,3-dihydro-1H-indol-2-one×trifluoroacetic acid] showed a negative logarithm of the Ki (pKi) above 7.30.

As to `CCOc1ccccc1C1(N2CCN(c3ccncc3)CC2)C(=O)N(S(=O)(=O)c2ccc(S(C)(=O)=O)cc2)c2ccc(C#N)cc21` (racemic) [Example 86, (±)-5-Cyano-3-(2-ethoxyphenyl)-1-(4-methanesulphonyl-benzenesulphonyl)-3-(4-pyridin-4-yl-piperazin-1-yl)-2,3-dihydro-1H-indol-2-one], the pKi is 6.30 to 7.30.

`CCOc1ccccc1C1(N2CCN(c3ccncc3)CC2)C(=O)N(S(=O)(=O)c2ccc(C(C)=O)cc2)c2ccc(C#N)cc21` (racemic) [Example 88, (±)-5-Cyano-1-(4-acetyl-benzenesulphonyl)-3-(2-ethoxyphenyl)-3-(4-pyridin-4-yl-piperazin-1-yl)-2,3-dihydro-1H-indol-2-one] had a pKi of 6.30 to 7.30.

As to `CCOc1ccccc1C1(N2CCN(c3ccncc3)CC2)C(=O)N(S(=O)(=O)c2ccc(C#N)cc2)c2ccc(C#N)cc21` (centres unmarked) [Example 7, 5-Cyano-1-(4-cyano-benzenesulphonyl)-3-(2-ethoxyphenyl)-3-(4-pyridin-4-yl-piperazin-1-yl)-2,3-dihydro-1H-indol-2-one], the pKi was 6.30 to 7.30.

In turn, `CCOc1ccccc1C1(N2CCN(c3ccncc3)CC2)C(=O)N(S(=O)(=O)c2ccc(F)cc2)c2ccc(C#N)cc21` (centres unmarked) [Example 15, 5-Cyano-3-(2-ethoxyphenyl)-1-(4-fluoro-benzenesulphonyl)-3-(4-pyridin-4-yl-piperazin-1-yl)-2,3-dihydro-1H-indol-2-one] had a pKi of 6.30 to 7.30.

`CCOc1ccc(C)cc1C1(N2CCN(c3ccncc3)CC2)C(=O)N(S(=O)(=O)c2ccc(OC)cc2OC)c2ccc(C#N)cc21` (racemic) [Example 101, (±)-5-Cyano-1-(2,4-dimethoxy-benzenesulphonyl)-3-(2-ethoxy-5-methylphenyl)-3-(4-pyridin-4-yl-piperazin-1-yl)-2,3-dihydro-1H-indol-2-one] showed a pKi above 7.30.

Compound `COc1ccc(S(=O)(=O)N2C(=O)C(c3ccccc3OC)(N3CCN(c4ccncc4)CC3)c3cc(Cl)ccc32)cc1` (centres unmarked) [Example 20, 5-Chloro-1-(4-methoxy-benzenesulphonyl)-3-(2-methoxyphenyl)-3-(4-pyridin-4-yl-piperazin-1-yl)-1,3-dihydro-indol-2-one] gave a negative-log Ki (pKi) of 6.30 to 7.30.

`CCOc1ccccc1C1(N2CCN(c3ccncc3)CC2)C(=O)N(S(=O)(=O)c2ccccc2)c2ccc(C#N)cc21` (centres unmarked) [Example 14, 5-Cyano-1-benzenesulphonyl-3-(2-ethoxyphenyl)-3-(4-pyridin-4-yl-piperazin-1-yl)-2,3-dihydro-1H-indol-2-one] showed a pKi of 6.30 to 7.30.

In turn, `CCOc1ccc(OC)cc1C1(N2CCN(C3CCNCC3)CC2)C(=O)N(S(=O)(=O)c2ccc(OC)cc2OC)c2ccc(C#N)cc21` (racemic) [Example 100, (±)-5-Cyano-1-(2,4-dimethoxy-benzenesulphonyl)-3-(2-ethoxy-5-methoxyphenyl)-3-(4-piperidin-4-yl-piperazin-1-yl)-2,3-dihydro-1H-indol-2-one hydrochloride] showed a pKi above 7.30.

The compound `CCOc1ccc(OC)cc1C1(NCCNc2ccncc2)C(=O)N(S(=O)(=O)c2ccc(OC)cc2OC)c2ccc(C#N)cc21` (centres unmarked) [Example 122, 5-Cyano-1-(2,4-dimethoxybenzenesulphonyl)-3-(2-ethoxy-5-methoxyphenyl)-3-[2-(pyridin-4-ylamino)-ethylamino]-2,3-dihydro-1H-indol-2-one] gave a pKi above 7.30.

`CCOc1ccccc1C1(N2CCN(c3ccncc3)CC2)C(=O)N(S(=O)(=O)c2ccccc2OC)c2ccc(C#N)cc21` (centres unmarked) [Example 8, 5-Cyano-3-(2-ethoxyphenyl)-1-(2-methoxy-benzenesulphonyl)-3-(4-pyridin-4-yl-piperazin-1-yl)-2,3-dihydro-1H-indol-2-one] gave a negative logarithm of the Ki (pKi) of 6.30 to 7.30.

For `COc1ccccc1C1(N2CCN(c3ccncc3)CC2)C(=O)N(S(=O)(=O)c2ccccc2)c2ccc(Cl)cc21` (centres unmarked) [Example 16, 1-Benzenesulphonyl-5-chloro-3-(2-methoxyphenyl)-3-(4-pyridin-4-yl-piperazin-1-yl)-1,3-dihydro-indol-2-one], the negative-log Ki (pKi) was 6.30 to 7.30.

`CCOc1ccccc1C1(N2CCN(c3ccncc3)CC2)C(=O)N(S(=O)(=O)c2ccc(C)cc2)c2ccc(C#N)cc21` (racemic) [Example 85, (±)-5-Cyano-3-(2-ethoxyphenyl)-3-(4-pyridin-4-yl-piperazin-1-yl)-1-(toluene-4-sulphonyl)-2,3-dihydro-1H-indol-2-one]: the pKi is 6.30 to 7.30.

`COc1ccc(S(=O)(=O)N2C(=O)C(c3cc(OC)ccc3OC)(N3CCN(c4ccncc4)CC3)c3cc(OC)ccc32)c(OC)c1` (centres unmarked) [Example 28, 1-(2,4-Dimethoxy-benzenesulphonyl)-3-(2,5-dimethoxyphenyl)-5-methoxy-3-(4-pyridin-4-yl-piperazin-1-yl)-1,3-dihydro-indol-2-one] had a pKi above 7.30.

`COc1ccccc1C1(N2CCN(c3ccncc3)CC2)C(=O)N(S(=O)(=O)c2ccc(C)cc2OC)c2ccc(Cl)cc21` (centres unmarked) [Example 6, 5-Chloro-1-(2-methoxy-4-methyl-benzenesulphonyl)-3-(2-methoxyphenyl)-3-(4-pyridin-4-yl-piperazin-1-yl)-1,3-dihydro-indol-2-one] showed a pKi above 7.30.

The compound `CCOc1ccccc1C1(N2CCN(c3ccncc3)CC2)C(=O)N(S(=O)(=O)c2ccc(CC)cc2)c2ccc(C#N)cc21` (racemic) [Example 90, (±)-5-Cyano-3-(2-ethoxyphenyl)-1-(4-ethyl-benzenesulphonyl)-3-(4-pyridin-4-yl-piperazin-1-yl)-2,3-dihydro-1H-indol-2-one] had a pKi of 6.30 to 7.30.

On to `CCOc1ccccc1C1(N2CCN(c3ccncc3)CC2)C(=O)N(S(=O)(=O)c2ccc(C)cc2F)c2ccc(C#N)cc21` (centres unmarked) [Example 115, 5-Cyano-3-(2-ethoxyphenyl)-1-(2-fluoro-4-methylbenzenesulphonyl)-3-(4-pyridin-4-yl-piperazin-1-yl)-2,3-dihydro-1H-indol-2-one], for which the pKi is 6.30 to 7.30.

The compound `CCOc1ccc(CC)cc1C1(N2CCN(c3ccnc(C)c3)CC2)C(=O)N(S(=O)(=O)c2ccc(OC)cc2OC)c2ccc(C#N)cc21` (racemic) [Example 107, (±)-5-Cyano-1-(2,4-dimethoxy-benzenesulphonyl)-3-(2-ethoxy-5-ethyl-phenyl)-3-[4-(2-methyl-pyridin-4-yl)-piperazin-1-yl]-2,3-dihydro-1H-indol-2-one] gave a pKi above 7.30.

`COc1ccc(S(=O)(=O)N2C(=O)C(c3ccccc3Cl)(N3CCN(c4ccncc4)CC3)c3cc(Cl)ccc32)c(OC)c1` (centres unmarked) [Example 24, 5-Chloro-3-(2-chloro-phenyl)-1-(2,4-dimethoxy-benzenesulphonyl)-3-(4-pyridin-4-yl-piperazin-1-yl)-1,3-dihydro-indol-2-one] gave a pKi above 7.30.

With `CCOc1ccc(OC)cc1C1(N2CCN(c3ccncc3)CC2)C(=O)N(S(=O)(=O)c2ccc(OC)cc2OC)c2ccc(C#N)cc21` (single isomer, unassigned; (+)) [Example 96, (+)-5-Cyano-1-(2,4-dimethoxy-benzenesulphonyl)-3-(2-ethoxy-5-methoxyphenyl)-3-(4-pyridin-4-yl-piperazin-1-yl)-2,3-dihydro-1H-indol-2-one], the negative logarithm of the Ki (pKi) is above 7.30.

With `COc1ccccc1C1(N2CCN(c3ccncc3)CC2)C(=O)N(S(=O)(=O)c2ccc(C#N)cc2)c2ccc(Cl)cc21` (centres unmarked) [Example 4, 4-[5-Chloro-3-(2-methoxyphenyl)-2-oxo-3-(4-pyridin-4-yl-piperazin-1-yl)-2,3-dihydro-indole-1-sulphonyl]-benzonitrile], the negative logarithm of the Ki (pKi) is 6.30 to 7.30.

`CCOc1ccccc1C1(N2CCN(c3ccncc3)CC2)C(=O)N(S(=O)(=O)c2ccc(C(C)C)cc2)c2ccc(C#N)cc21` (racemic) [Example 81, (±)-5-Cyano-3-(2-ethoxyphenyl)-1-(4-isopropyl-benzenesulphonyl)-3-(4-pyridin-4-yl-piperazin-1-yl)-2,3-dihydro-1H-indol-2-one] had a pKi of 6.30 to 7.30.

Compound `CCOc1ccccc1C1(N2CCCN(c3ccncc3)CC2)C(=O)N(S(=O)(=O)c2ccc(OC)cc2OC)c2ccc(C#N)cc21` (centres unmarked) [Example 56, 5-Cyano-1-(2,4-dimethoxy-benzenesulphonyl)-3-(2-ethoxyphenyl)-3-(4-pyridin-4-yl-[1.4]diazepan-1-yl)-2,3-dihydro-1H-indol-2-one] showed a negative logarithm of the Ki (pKi) of 6.30 to 7.30.
